Test system in the first assay: not listed separately
Nature of the assay: Sensory test of ability to reduce the odor of 2,6-dimethylpyrazine on cloth. To be noted: 0.5 μL flavoring agent on 0.5 g cloth containing 1% 2,6-dimethylpyrazine; four panelists; FIG. 3. It is filed as in vivo. As for the experimental part:
The abilities to reduce an odor of a pyrazine derivative by the antagonist substances identified in Example 3 were confirmed by a sensory test.
A flavoring agent (0.5 μL) was added to cloth (0.5 g) containing 2,6-dimethylpyrazine (1%), and the odor thereof was evaluated by comparing the strength of odor of 2,6-dimethylpyrazine of the cloth not applied with flavor by the flavoring agent. The sensory evaluation test was performed by four panelists. In the evaluation, a case where a strong odor of 2,6-dimethylpyrazine was smelled was rated as 1, and a case where the odor of 2,6-dimethylpyrazine was not smelled at all was rated as 5.
On to `CC=CC(=O)C1=C(C)C=CCC1(C)C` [1-(2,6,6-trimethyl-1,3-cyclohexadien-1-yl)-2-buten-1-one], for which the “odor of 2,6-dimethylpyrazine inhibited (sensory evaluation, rating 1 strong odor to 5 not smelled)” value is reported as “inhibited”.

As for `CCC(O)COC1CCCCC1C(C)(C)C` (stereo not shown) [1-(2-tert-butylcyclohexyloxy)-2-butanol], the “odor of 2,6-dimethylpyrazine inhibited (sensory evaluation, rating 1 strong odor to 5 not smelled)” value was “inhibited”.

As for `C=CCCC(=O)C1=CCCC(C)(C)C1` [1-(5,5-dimethyl-1-cyclohexen-1-yl)-4-penten-1-one], the “odor of 2,6-dimethylpyrazine inhibited (sensory evaluation, rating 1 strong odor to 5 not smelled)” value is “inhibited”.

With `CC1=CC(C)C(C=O)CC1` (stereo not shown) [2,4-dimethyl-3-cyclohexene-1-carboxyaldehyde], the “odor of 2,6-dimethylpyrazine inhibited (sensory evaluation, rating 1 strong odor to 5 not smelled)” value was “inhibited”.

As for `CC(=CCC1CC=C(C)C1(C)C)CO` (stereo not shown) [2-methyl-4-(2,2,3-trimethyl-3-cyclopenten-1-yl)-2-buten-1-ol], the “odor of 2,6-dimethylpyrazine inhibited (sensory evaluation, rating 1 strong odor to 5 not smelled)” value is listed as “inhibited”.

Take `CC(=O)C=CC1=C(C)CCCC1(C)C` [4-(2,6,6-trimethyl-1-cyclohexen-1-yl)-3-buten-2-one]: the “odor of 2,6-dimethylpyrazine inhibited (sensory evaluation, rating 1 strong odor to 5 not smelled)” value was “inhibited”.

`CCC=C(C)C(O)CCCCC` (stereo not shown) [4-methyl-3-decen-5-ol]: the “odor of 2,6-dimethylpyrazine inhibited (sensory evaluation, rating 1 strong odor to 5 not smelled)” value was “inhibited”.

For the compound `CC1C/C=C/CCCCCCCCCC(=O)C1` (stereo not shown) [(5E)-3-methylcyclopenta-5-decen-1-one], the “odor of 2,6-dimethylpyrazine inhibited (sensory evaluation, rating 1 strong odor to 5 not smelled)” value is on record as “inhibited”.

`CC(C)=CCC/C(C)=C/CO` [(E)-3,7-dimethyl-2,6-octadien-1-ol]: the “odor of 2,6-dimethylpyrazine inhibited (sensory evaluation, rating 1 strong odor to 5 not smelled)” value is on record as “inhibited”.

In the case of `CCOC(=O)[C@]12CCC[C@H]1[C@@H]1CC[C@H]2C1` [ethyl-(3aα,4α,7α,3aα)-octahydro-4,7-methano-3aH-indene-3a-carboxylate], the “odor of 2,6-dimethylpyrazine inhibited (sensory evaluation, rating 1 strong odor to 5 not smelled)” value is “inhibited”.

On to `CCCCCCC(C=O)=Cc1ccccc1` [α-hexylcinnamic aldehyde], for which the “odor of 2,6-dimethylpyrazine inhibited (sensory evaluation, rating 1 strong odor to 5 not smelled)” value is reported as “inhibited”.

On to `CC(=O)/C(C)=C/C1C(C)=CCCC1(C)C` (stereo not drawn) [α-isomethyl ionone], for which the “odor of 2,6-dimethylpyrazine inhibited (sensory evaluation, rating 1 strong odor to 5 not smelled)” value was “inhibited”.

Take `CC(C=O)Cc1ccc2c(c1)OCO2` (stereo not drawn) [α-methyl-3,4-methylenedioxyhydrocinnamic aldehyde]: the “odor of 2,6-dimethylpyrazine inhibited (sensory evaluation, rating 1 strong odor to 5 not smelled)” value is “inhibited”.

For `CC(C=O)Cc1ccc(C(C)(C)C)cc1` (stereo not drawn) [α-methyl-β-(p-tert-butylphenyl)-propionaldehyde], the “odor of 2,6-dimethylpyrazine inhibited (sensory evaluation, rating 1 strong odor to 5 not smelled)” value is “inhibited”.

Regarding `CC(=O)c1ccc2ccccc2c1` [β-methyl naphthyl ketone], the “odor of 2,6-dimethylpyrazine inhibited (sensory evaluation, rating 1 strong odor to 5 not smelled)” value is recorded as “inhibited”.

For the compound `CCCCCCCC1CCC(=O)O1` (stereo not shown) [γ-undecalactone], the “odor of 2,6-dimethylpyrazine inhibited (sensory evaluation, rating 1 strong odor to 5 not smelled)” value was “inhibited”.

The target in another assay is T1, olfactory receptor OR5K1 (Homo sapiens, UniProt Q8NHB7).
T1 construct: expressed in transfected cells; host or cells: HEK293
T1 sequence (Q8NHB7 1-308): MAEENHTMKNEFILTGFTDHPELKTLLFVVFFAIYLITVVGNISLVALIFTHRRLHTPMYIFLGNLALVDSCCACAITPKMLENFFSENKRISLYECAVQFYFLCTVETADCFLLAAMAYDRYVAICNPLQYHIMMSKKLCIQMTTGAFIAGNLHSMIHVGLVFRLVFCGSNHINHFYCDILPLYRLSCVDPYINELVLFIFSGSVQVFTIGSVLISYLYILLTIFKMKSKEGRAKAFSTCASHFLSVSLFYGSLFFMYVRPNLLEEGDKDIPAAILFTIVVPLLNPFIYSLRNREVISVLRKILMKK
Kind of assay: Antagonistic activity against OR5K1: inhibition of the receptor response to 2,6-dimethylpyrazine (luciferase assay, HEK293 cells). The note with it: 2,6-dimethylpyrazine 1 mM + test substance 300 μM, cytotoxic flavoring agents re-evaluated at 333 μM 2,6-dimethylpyrazine + 100 μM test substance, read-out: Inhibition rate (receptor response-inhibiting rate). The assay is classed as cell-based. The procedure:
The receptor response-inhibiting rate of a test substance was calculated as follows. The receptor activity (X-Y) by stimulation with 2,6-dimethylpyrazine alone was determined by subtracting the luminescence value (Y) in cells to which the receptor was introduced but were not stimulated with 2,6-dimethylpyrazine from the luminescence value (X) derived from firefly luciferase induced by stimulation with 2,6-dimethylpyrazine alone. Similarly, the receptor activity (Z-Y) in the presence of a test substance was determined by subtracting the luminescence value (Y) in cells not stimulated with 2,6-dimethylpyrazine from the luminescence value (Z) stimulated with a mixture of 2,6-dimethylpyrazine and the test substance. The reduction rate of the receptor activity (Z-Y) in the presence of a test substance to the receptor activity (X-Y) by stimulation with 2,6-dimethylpyrazine alone was calculated by the following computation expression: Inhibition rate (%)={1−(Z−Y)/(X−Y)}×100, to determine the receptor response-inhibiting rate of the test substance. In the measurement, multiple independent experiments were performed in duplicate, and the average of each experiment was used.
With `O=C1CCCCCCCCCCCC(=O)OCCO1` [1,4-dioxacycloheptadecane-5,17-dione], the inhibition (usually the drop in the measured response relative to a control, in per cent) at 300 µM is at least 40%.

As to `CC(=O)C1=C(C)C2CC3(C1)C(C)CCC3C2(C)C` (stereo not shown) [1-(2,3,4,7,8,8a-hexahydro-3,6,8,8-tetramethyl-1H-3a,7-methanoazulen-5-yl)-ethanone], the inhibition at 300 µM was at least 50%.

Consider `CC=CC(=O)C1=C(C)C=CCC1(C)C` [1-(2,6,6-trimethyl-1,3-cyclohexadien-1-yl)-2-buten-1-one], for which the inhibition at 300 µM was at least 40%.

With `CCC(O)COC1CCCCC1C(C)(C)C` (stereo not shown) [1-(2-tert-butylcyclohexyloxy)-2-butanol], the inhibition at 300 µM was at least 75%.

Regarding `C=CCCC(=O)C1=CCCC(C)(C)C1` [1-(5,5-dimethyl-1-cyclohexen-1-yl)-4-penten-1-one], the inhibition at 300 µM is at least 40%.

Take `CC(=O)c1cc2c(cc1C)C(C)(C)C(C)CC2(C)C` (stereo not shown) [1-(5,6,7,8-tetrahydro-3,5,5,6,8,8-hexamethyl-2-naphthalenyl)-ethanone]: the inhibition at 300 µM is at least 75%.

For the compound `C=CCc1ccc(O)c(OC)c1` [1-allyl-3-methoxy-4-hydroxybenzene], the inhibition at 300 µM was at least 40%.

`CC(C=O)C1CCCCC1` (stereo not shown) [2-cyclohexylpropanal]: the inhibition at 300 µM is at least 50%.

As to `CCC(=CCC1CC=C(C)C1(C)C)CO` (stereo not shown) [2-ethyl-4-(2,2,3-trimethyl-3-cyclopenten-1-yl)-2-buten-1-ol], the inhibition at 300 µM was at least 75%.

Take `CC=Cc1ccc(OCc2ccccc2)c(OC)c1` [2-methoxy-1-(phenylmethoxy)-4-(1-propenyl)-benzene]: the inhibition at 300 µM was at least 50%.

On to `CC(=CCC1CC=C(C)C1(C)C)CO` (stereo not shown) [2-methyl-4-(2,2,3-trimethyl-3-cyclopenten-1-yl)-2-buten-1-ol], for which the inhibition at 300 µM is at least 50%.

As to `CCCCCC1=C(C)CCC1=O` [2-pentyl-3-methyl-2-cyclopenten-1-one], the inhibition at 300 µM is at least 40%.

As to `CC(C=O)c1ccccc1` (stereo not shown) [2-phenylpropionaldehyde], the inhibition at 300 µM is at least 50%.

As for `CC(C)CCCC(C)CCO` (stereo not shown) [3,7-dimethyl-1-octanol], the inhibition at 300 µM is at least 50%.

Take `CC(C)=CCCC(C)=CC=O` [3,7-dimethyl-2,6-octadienal]: the inhibition at 300 µM is at least 75%.

`CC(C)=CCCC(C)CC=O` (stereo not shown) [3,7-dimethyl-6-octenal]: the inhibition at 300 µM was at least 50%.

`C=C(OCC)C1C(C)(C)CC(=O)CC1(C)C` [4-(1-ethoxyvinyl)-3,3,5,5-tetramethylcyclohexanone]: the inhibition at 300 µM is at least 50%.

`CCC=C(C)C(O)CCCCC` (stereo not shown) [4-methyl-3-decen-5-ol]: the inhibition at 300 µM was at least 75%.

As for `CC(=O)c1c(C)c([N+](=O)[O-])c(C(C)(C)C)c([N+](=O)[O-])c1C` [4-tert-butyl-2,6-dimethyl-3,5-dinitroacetophenone], the inhibition at 300 µM is at least 40%.

Take `Cc1ccc(C(C)C)c(O)c1` [5-methyl-2-(1-methylethyl)-phenol]: the inhibition at 300 µM was at least 75%.

For `CC(C)=CCCC(C)CCOCC=O` (stereo not shown) [6,10-dimethyl-3-oxa-9-undecenal], the inhibition at 300 µM was at least 40%.

Take `CC(=O)c1cc(C(C)(C)C)cc2c1C=CC2(C)C` [6-tert-butyl-1,1-dimethylinden-4-yl methyl ketone]: the inhibition at 300 µM is at least 40%.

Take `CC(=O)C1(C)CC2=C(CCCC2(C)C)CC1C` (stereo not shown) [7-acetyl-1,2,3,4,5,6,7,8-octahydro-1,1,6,7-tetramethyl-naphthalene]: the inhibition at 300 µM is at least 75%.

Regarding `CC(C)=CCC/C(C)=C/CO` [(E)-3,7-dimethyl-2,6-octadien-1-ol], the inhibition at 300 µM was at least 40%.

As for `CC(=O)O[C@]1(C)CC[C@@]23C[C@@H]1C(C)(C)[C@@H]2CC[C@H]3C` [cedryl acetate], the inhibition at 300 µM is at least 50%.

On to `O=CC=Cc1ccccc1` [cinnamaldehyde], for which the inhibition at 300 µM is at least 50%.

Regarding `CC(C)[C@H]1CC[C@@H](CO)CC1` [cis-4-isopropylcyclohexylmethanol], the inhibition at 300 µM was at least 40%.

In the case of `CC1(C)CCCC2(C)C1CCC1(C)OCCC12` (stereo not shown) [dodecahydro-3a,6,6,9a-tetramethylnaphtho[2,1-b]furan], the inhibition at 300 µM is at least 50%.

In the case of `CCOCOC1CCCCCCCCCCC1` [formaldehyde cyclododecyl ethyl acetal], the inhibition at 300 µM is at least 50%.

As for `CCCCCCOC(=O)c1ccccc1O` [hexyl salicylate], the inhibition at 300 µM was at least 40%.

Turning to `O=C(OCCc1ccccc1)c1ccccc1O` [phenylethyl salicylate], the inhibition at 300 µM is at least 75%.

For the compound `CC(C=O)Cc1ccc(C(C)C)cc1` (stereo not drawn) [α-methyl-4-(1-methylethyl)-benzenepropanal], the inhibition at 300 µM was at least 75%.

With `CC(C=O)Cc1ccc(C(C)(C)C)cc1` (stereo not drawn) [α-methyl-β-(p-tert-butylphenyl)-propionaldehyde], the inhibition at 300 µM was at least 50%.

(Values after patent publication US10159655B2, “Agent for inhibiting odor of pyrazine derivatives” (Kao Corporation, priority 2012, dated 2018).)
